What all share (type): cell-based, Clostridium Difficile
In test [1] the test system is C. Difficile NCTC 11204 and ribotype 027 (R20291) spores. In words: Germination tests, heat shock method (heat vs ice). The conditions noted are these: 2% (w/v) germination solution, 1 hour, strains 11204 and 027; for >1 log reduction on heat: then 70° C. for 20 minutes, reduction suggests germinant; for >1 log reduction on ice: control samples kept on ice, reduction suggests sporicide or germinant/antimicrobial. The procedure: Many of the synthesised compounds were tested for their germinating and antimicrobial abilities against C. Difficile. Due to the insolubility of some of the compounds in water, DMSO, ethanol and methanol were used to dissolve the compounds.
The C. Difficile reference strain, NCTC 11204 and C. Difficile ribotype 027 (R20291) (Anaerobic Reference Laboratory, Cardiff, UK) were used during testing.
Spore suspensions of C. Difficile were prepared following the method proposed by Shetty et al. (1999). Briefly, Columbia base agar plates were inoculated with the relevant strain of C. Difficile and incubated for 72 hours anaerobically at 37° C. (MiniMACS anaerobic cabinet, Don Whitley Scientific, Shipley, UK). Then, the plates were removed and left or 24 hours in aerobic conditions at room temperature. Colonies were then harvested into 20 mL of 50% (w/v) ethanol and 50% saline, and vortex thoroughly. These were stored at 4° C. until needed.
All experiments were performed in triplicate using spore suspensions containing 1×10^7 CFU mL^−1 spores of C. difficile NCTC 11204 and ribotype 027.
Before use, 1 mL of spores were centrifuged at 13000 rpm for 10 minutes (Spectrafuge 24D; Labnet, Woodbridge, USA). The supernatant was discarded, and the pellet resuspended in 1 mL sterile distilled water and vortex mixed thoroughly.
Germination solutions were prepared using 2% (w/v) of the compound in diluent (DMSO, ethanol, methanol, water) plus double strength thioglycollate medium (Oxoid, UK).
For the heat shock method, 100 μl spores were exposed to 100 μl of the germination solution and incubated at room temperature in air for 1 hour. The entire 200 μl sample was then added to 800 μl sterile distilled water to dilute out the germinant to ineffective concentrations. Samples were placed on heat at 70° C. for 20 minutes to eliminate any germinated, metabolically active spores. Control samples were kept on ice. Solutions were then diluted accordingly using sterile distilled water, and cultured onto fastidious anaerobic agar (Lab M, Bury, UK), supplemented with 0.1% (w/v) sodium taurocholate (ST) and 5% (w/v) defibrinated horse blood using the Miles and Misra method (Miles et al., 1938). These were then incubated anaerobically for 48 hours at 37° C. (MiniMACS anaerobic cabinet, Don Whitley Scientific, Shipley, UK) and the CFU mL^−1 counted.
The results from the table above show the compounds that gave a 1 log reduction or more between the initial spore count and the spore count after the heat and ice treatment. […] Due to the nature of this test, it is difficult to distinguish between the two.

The subject of test [2] is C. Difficile spores. In words: Germination and antimicrobial efficiency (dual activity) of compound 129 in HDPE. The conditions noted are these: for % Reduction 2 hours / Log Reduction 2 hours / % Reduction 24 hours / Log Reduction 24 hours / % Reduction 96 hours / Log Reduction 96 hours: HDPE polymer. The source says:
Reactively processed HDPE polymer containing compound 129 is shown to have the ability to both germinate the spores of C. […] This exemplifies, therefore, the dual action of compound 129 and its efficacy both as a germinant and an antimicrobial.

Test [3] concerns C. Difficile spores. In words: Germination activity of compound 129 reactively processed with HDPE after subsequent exposure to ethanol. The conditions noted are these: for % Reduction 2 hours / Log Reduction 2 hours / % Reduction 24 hours / Log Reduction 24 hours / % Reduction 96 hours / Log Reduction 96 hours: HDPE polymer film, after ethanol exposure. As for the experimental part:
HDPE (high density polyethylene) samples containing the modified bile salt compound 129, reactively processed under different compression moulding conditions, were tested to determine the germination activity. […] Difficile spores. This confirms the germination activity of compound 129 when incorporated into HDPE by reactive processing.

On to `C[C@H](CCC(=O)NCCC[N+](C)(C)c1ccc(C(=O)c2ccccc2)cc1)[C@H]1CC[C@H]2[C@@H]3[C@H](O)C[C@@H]4C[C@H](O)CC[C@]4(C)[C@H]3C[C@H](O)[C@]12C.[Br-]` [2/148], for which, in test [1], the “>1 log reduction on heat” value was “Yes (027)”.
Turning to `C[C@H](CCC(=O)NCC[N+]1(c2ccc(C(=O)c3ccccc3)cc2)CCCC1)[C@H]1CC[C@H]2[C@@H]3[C@H](O)C[C@@H]4C[C@H](O)CC[C@]4(C)[C@H]3C[C@H](O)[C@]12C.[Br-]` [2/150], the “>1 log reduction on ice” value in test [1] was “Yes (11204)”.
Take `C[C@H](CCC(=O)NCc1ccccc1)[C@H]1CC[C@H]2[C@@H]3[C@H](O)C[C@@H]4C[C@H](O)CC[C@]4(C)[C@H]3C[C@H](O)[C@]12C` [Compound 2, cholic acid benzyl amide]: in test [1], the “>1 log reduction on ice” value is “Yes (11204)”.
Take `CCCCN(CCCC)CCCNC(=O)CC[C@@H](C)[C@H]1CC[C@H]2[C@@H]3[C@H](O)C[C@@H]4C[C@H](O)CC[C@]4(C)[C@H]3C[C@H](O)[C@]12C` [Compound 7]: in test [1], the “>1 log reduction on ice” value is listed as “Yes (11204)” and the “>1 log reduction on heat” value is “Yes (11204)”.
In the case of `C[C@H](CCC(=O)NCCN1CCCC1)[C@H]1CC[C@H]2[C@@H]3[C@H](O)C[C@@H]4C[C@H](O)CC[C@]4(C)[C@H]3C[C@H](O)[C@]12C` [Compound 10], in test [1], the “>1 log reduction on heat” value was “Yes (11204)”.
As to `CCCCCCCCCCCCCCCCCCNC(=O)CC[C@@H](C)[C@H]1CC[C@H]2[C@@H]3[C@H](O)C[C@@H]4C[C@H](O)CC[C@]4(C)[C@H]3C[C@H](O)[C@]12C` [Compound 16], the “>1 log reduction on heat” value in test [1] is “Yes (11204 and 027)”.
Regarding `CCCCCC[N+](C)(C)CCCNC(=O)CC[C@@H](C)[C@H]1CCC2C3C(C[C@H](O)[C@@]21C)[C@@]1(C)CC[C@@H](O)CC1C[C@H]3O` (stereo partly shown) [Compound 29], the “>1 log reduction on heat” value in test [1] is “yes”.
Same read-out and setting: then `C=CC[N+](C)(C)CCCNC(=O)CC[C@@H](C)[C@H]1CCC2C3C(C[C@H](O)[C@@]21C)[C@@]1(C)CC[C@@H](O)CC1C[C@H]3O.[Br-]` (stereo partly shown) [Compound 34, 3-cholanamidopropyl-allyl-dimethyl-ammonium;bromide], with “yes”.
With `CCC[N+]1(CCNC(=O)CC[C@@H](C)[C@H]2CC[C@H]3[C@@H]4[C@H](O)C[C@@H]5C[C@H](O)CC[C@]5(C)[C@H]4C[C@H](O)[C@]23C)CCCC1.[I-]` [Compound 45], in test [1], the “>1 log reduction on ice” value is “yes” and the “>1 log reduction on heat” value was “yes”.
In the case of `C[C@H](CCC(=O)NCC[N+]1(Cc2ccccc2)CCCC1)[C@H]1CC[C@H]2[C@@H]3[C@H](O)C[C@@H]4C[C@H](O)CC[C@]4(C)[C@H]3C[C@H](O)[C@]12C` [Compound 50], in test [1], the “>1 log reduction on ice” value is given as “yes” and the “>1 log reduction on heat” value is listed as “yes”.
As for `C=Cc1ccc(C[N+](C)(C)CCNC(=O)CC[C@@H](C)[C@H]2CCC3C4CCC5C[C@H](O)CC[C@]5(C)C4CC[C@@]32C)cc1.[Cl-]` (stereo partly drawn) [Compound 129, 2-[[(4R)-4-[(3R,10S,13R,17R)-3-hydroxy-10,13-dimethyl-2,3,4,5,6,7,8,9,11,-12,14,15,16,17-tetradecahydro-1H-cyclopenta[a]phenanthren-17-yl]pentanoyl]-amino]ethyl-dimethyl-[(4-vinylphenyl)methyl]ammonium chloride], in the test on C. Difficile spores [2] (3% T101 165° C.), the “% Reduction 2 hours” value worked out at 96.9%, the “Log Reduction 2 hours” value amounted to 1.563 Log, the “% Reduction 24 hours” value is reported as 86.9% and the “Log Reduction 24 hours” value was 0.940 Log. Further, in the test on C. Difficile spores [2] (3% T101 165° C.), the “% Reduction 96 hours” value is given as 78.0% and the “Log Reduction 96 hours” value was found to be 0.714 Log. Also, in the test on C. Difficile spores [2] (3% T101 170° C.), the “% Reduction 2 hours” value is 79.6%, the “Log Reduction 2 hours” value is recorded as 0.747 Log, the “% Reduction 24 hours” value is given as 75.4% and the “Log Reduction 24 hours” value was determined as 0.666 Log. For the same compound, in the test on C. Difficile spores [2] (3% T101 170° C.), the “% Reduction 96 hours” value worked out at 88.5% and the “Log Reduction 96 hours” value came to 0.998 Log. Further, in the test with C. Difficile spores [2] (6% T101 160° C.), the “% Reduction 2 hours” value was 0.0%, the “Log Reduction 2 hours” value worked out at 0.057 Log, the “% Reduction 24 hours” value came out at 44.8% and the “Log Reduction 24 hours” value is reported as 0.315 Log. Also, in the test with C. Difficile spores [2] (6% T101 160° C.), the “% Reduction 96 hours” value was found to be 86.8% and the “Log Reduction 96 hours” value is 0.936 Log. In the test on C. Difficile spores [2] (reactive processing of the polymer at 170° C.), the spore reduction was determined as 79.6%. In the test with C. Difficile spores [2] (reactively processed HDPE polymer containing compound 129), the “reduction of the subsequent metabolically active bio-load after spore germination” value is given as 96.9%. Further, the “germination activity, lower vs higher processing temperature” value with C. Difficile spores [3] (3% films, samples processed at the lower temperature (165° C. vs 170° C.), after 24 and 46 hours) is “slightly higher level of germination activity”. In the test on C. Difficile spores [3] (3% T101 160° C.), the “% Reduction 2 hours” value amounted to 79.8%, the “Log Reduction 2 hours” value is reported as 0.752 Log, the “% Reduction 24 hours” value is 67.6% and the “Log Reduction 24 hours” value was found to be 0.546 Log. Moreover, in the test with C. Difficile spores [3] (3% T101 160° C.), the “% Reduction 96 hours” value is 69.8% and the “Log Reduction 96 hours” value is on record as 0.577 Log. For the same compound, in the test with C. Difficile spores [3] (3% T101 165° C.), the “% Reduction 2 hours” value turned out to be 99.2%, the “Log Reduction 2 hours” value stood at 2.165 Log, the “% Reduction 24 hours” value was found to be 97.1% and the “Log Reduction 24 hours” value came out at 1.598 Log. Besides, in the test with C. Difficile spores [3] (3% T101 165° C.), the “% Reduction 96 hours” value stood at 92.0% and the “Log Reduction 96 hours” value amounted to 1.154 Log. In addition, in the test with C. Difficile spores [3] (3% T101 170° C.), the “% Reduction 2 hours” value was found to be 99.2%, the “Log Reduction 2 hours” value came to 2.165 Log, the “% Reduction 24 hours” value was 87.8% and the “Log Reduction 24 hours” value worked out at 0.971 Log. Besides, in the test with C. Difficile spores [3] (3% T101 170° C.), the “% Reduction 96 hours” value was 82.0% and the “Log Reduction 96 hours” value came to 0.802 Log. For the same compound, the germination activity entry in the test with C. Difficile spores [3] (HDPE samples with a higher amount of compound 129 (6%)) is “did not perform well”. In addition, the “Log reduction compared to the HDPE/peroxide T101 control” value in the test on C. Difficile spores [3] (polymer film containing 3% of compound 129, prepared both at 165° C. and 170° C., at 2 hours) was 2.2 Log. Further, the “reduction in C. Difficile spores” value in the test with C. Difficile spores [3] (prepared at 165° C./170° C., following subsequent exposure to ethanol) came out at 99.2%.

(Values after patent publication US11629166B2, “Compound for treating clostridium difficile” (priority 2014, dated 2023).)
